# From patent publication US20260098043A1, “POLYCYCLIC COMPOUND AND USE THEREOF” (HAINAN SIMCERE ZAIMING PHARMECEUTICAL CO., LTD., priority 2022, published 2026)
# Like-named read-outs stand apart in the source and are kept apart here.
# Columns and labels:
# human Cereblon WT = target: T1, human Cereblon WT (Homo sapiens, UniProt Q96SW2); experiment: Cereblon binding experiment (HTRF Human Cereblon Binding Kit, competition with XL665-labeled lenalidomide tracer); conditions: 3 h incubation at room temperature, 100% inhibition = 200 μM lenalidomide, read-out: IC50 (binding ability to Cereblon)
# T1 construct: purchased
# Description: The detection kit (HTRF Human Cereblon Binding Kits) used in the experiment was a detection method for the quantitative measurement of Cereblon WT ligands using HTRF® technology. The detection principle was based on HTRF technology, where the specifically labeled GST antibody (Euroum Cryptate, donor) simultaneously bound to the GST-labeled human Cereblon WT ligand and the XL665-labeled lenalidomide tracer (acceptor). The donor was excited by a light source to induce fluorescence resonance energy transfer (FRET) to the acceptor, and the acceptor emitted fluorescence at a specific wavelength of 665 nm. After the addition of a compound, the compound competed with the XL665-labeled lenalidomide to prevent FRET from occurring. […]
# The compounds of the present disclosure were dissolved in DMSO at a stock concentration of 10 mM. […] The HTRF signal in each well was measured using an Envision plate reader. […]
# The ratio of acceptor to donor emission signals was calculated for each well: […]
# (§1) Data analysis was performed by GraphPad Prism 9. The concentration-response curves were obtained using non-linear four-parameter fitting, and the IC50 for the compound was calculated: […]
# The binding ability of the compounds of the present disclosure to Cereblon was determined through the above test, and the measured IC50 values were shown in Table 1.
# MV-4-11 cells = experiment: Antiproliferative activity for MV-4-11 cells (CellTiter-Glo, 3 days); type: cell-based; conditions: Homo sapiens, MV4-11, 72 h, read-out: IC50 (antiproliferative activity for MV-4-11 cells)
# Procedure: The medium of the target cells MV-4-11 (CBP60522, Cobioer) was removed, and PBS was added for rinsing once, followed by digestion with trypsin (Trypsin-EDTA (0.25%)) for 5 min. After the digestion, 10 mL of a complete medium (IMDM+10% FBS) was added to neutralize the trypsin. The cells were then pipetted and collected, centrifuged at 1000 rpm for 5 min, and counted. The cell density was adjusted to 30,000 cells/mL. 90 μL of the cell suspension was added to a 96-well low-adsorption plate. 200 μL of PBS was added to the edge wells of the 96-well plate. The plate was centrifuged at 1000 rpm for 5 min to form cell spheroids, which were then incubated in a cell incubator overnight. […]
# The cells were removed from the incubator and allowed to return to room temperature within 30 min. 50 μL of the CellTiter-Glo® Cell Viability Assay reagent was added, and the plate was shaken to mix thoroughly for 10 min before it was read on the Envision microplate reader.
# The antiproliferative activity of the compounds of the present disclosure for MV-4-11 cells was determined through the above test, and the cell growth inhibition rate for each sample well was calculated based on the raw data.
# as §1
# BRD4 = target: T2, BRD4 (Homo sapiens, UniProt O60885); experiment: Degradation activity for BRD4 proteins in MV-4-11 cells (Western blot, 6 h); type: cell-based; conditions: for DC50: read-out: DC50 of BRD4 protein degradation
# T2 construct: The degradation activity for BRD4 proteins in MV-4-11 cells; host or cells: MV-4-11
# Procedure: The medium of MV-4-11 (CBP60522, Cobioer) was removed, and PBS was added for rinsing once, followed by digestion with trypsin (Trypsin-EDTA (0.25%)) for 5 min. After the digestion, 10 mL of a complete medium (an IMDM medium containing 10% FBS) was added to neutralize the trypsin. The cells were then pipetted and collected, centrifuged at 1000 rpm for 5 min, and counted. The cell density was adjusted to 500,000 cells/mL. 2 mL of the cell suspension was added to a 12-well plate, and the plate was incubated in a cell incubator overnight.
# The compounds of the present disclosure were dissolved in DMSO at a stock concentration of 10 mM. The compound stock solution was subjected to gradient dilution (4-fold dilution), resulting in 8 concentration points. DMSO was used as the negative control group, and the DMSO content was 0.1%. After mixing the compound with the cell suspension thoroughly, the mixture was incubated at 37° C. with 5% CO2 for 6 h.
# Six hours after drug treatment, the supernatant was discarded, and the cells were washed with 1000 μL of pre-cooled PBS. 100 μL of RIPA lysis buffer (25 mM Tris-HCl, pH=7.5, 150 mM NaCl, 1% NP-40, 1 mM EDTA, pH=8.0, 1 mM PMSF, 1 mM Na3VO4, and 1× Protease Inhibitor Cocktail-P2714, Sigma) was added and placed on ice for lysis for 10 min. The lysed cell samples were collected and centrifuged at 12000 rpm at 4° C. for 30 min. The concentration of each protein sample was determined using the Pierce BCA kit for protein quantification. An appropriate amount of 5×SDS-PAGE protein loading buffer was added to the collected protein samples, and the mixtures were then heated in a metal bath at 100° C. for 10 min to fully denature the proteins. The protein samples were loaded into the SDS-PAGE gel loading wells and electrophoresed at a constant voltage of 120 V for 60 min. After the electrophoresis, the gel was transferred to a PVDF membrane using a Bio-bad transfer apparatus. After the transfer, the band was cut according to the size of the target protein and blocked with 5% BSA (prepared by dissolving 5 g of BSA in 100 mL of TBST) at room temperature for 1 h. […] The proteins were detected using the SuperSignal West Atto ultra-sensitive ECL luminescent liquid.
# The degradation activity for BRD4 proteins in MV-4-11 cells by the compounds of the present disclosure was determined through the above test. The gray values of the target sample bands were read using Image J software, and the protein degradation rate for each sample well was calculated based on the raw data.
# [formula] • wherein: • All raw data were processed for data analysis using GraphPad Prism 9. The concentration-response curves were obtained using non-linear four-parameter fitting, and the DC50 for the compound was calculated: […]
# [1] = MV-4-11 cells, 6 h, Western blot
IC50 (human Cereblon WT) [µM],SMILES,DC50 (BRD4; [1]) [µM],also measured
0.188,"Cn1c(=O)n(C2CCC(=O)NC2=O)c2ccc3ccccc3c21 (centres unmarked) [Compound 1, 3-(1-methyl-2-oxo-1,2-dihydro-3H-naphtho[1,2-d]imidazol-3-yl)piperidine-2,6-dione]",,
,"Cc1sc2c(c1C)C(c1ccc(Cl)cc1)=N[C@@H](CC(=O)NCCCCCC(=O)NCc1ccc3ccc4c(c3c1)n(C)c(=O)n4C1CCC(=O)NC1=O)c1nnc(C)n1-2 (stereo partly drawn) [Compound 2, 6-(2-((S)-4-(4-chlorophenyl)-2,3,9-trimethyl-6H-thieno[3,2-f][1,2,4]triazolo[4,3-a][1,4]diazepin-6-yl)acetamido)-N-((3-(2,6-dioxopiperidin-3-yl)-1-methyl-2-oxo-2,3-dihydro-1H-naphtho[1,2-d]imidazol-8-yl)methyl)hexanamide]",0.00219,"IC50 (MV-4-11 cells): 0.0038 µM; Dmax (BRD4; MV4-11, read-out: Maximum degradation rate (%) of BRD4 protein): 85.6%"
,"Cc1sc2c(c1C)C(c1ccc(Cl)cc1)=N[C@@H](CC(=O)NCCCCCC(=O)NCc1cccc3c1ccc1c3n(C)c(=O)n1C1CCC(=O)NC1=O)c1nnc(C)n1-2 (stereo partly drawn) [Compound 3, 6-(2-((S)-4-(4-Chlorophenyl)-2,3,9-trimethyl-6H-thieno[3,2-f][1,2,4]triazolo[4,3-a][1,4]diazepin-6-yl)acetamido)-N-((3-(2,6-dioxopiperidin-3-yl)-1-methyl-2-oxo-2,3-dihydro-1H-naphtho[1,2-d]imidazol-6-yl)methyl)hexanamide]",0.0112,"IC50 (MV-4-11 cells; MV-4-11 cells, 3 days, CellTiter-Glo): 0.0141 µM; Dmax (BRD4; MV4-11, MV-4-11 cells, 6 h, Western blot, read-out: Maximum degradation rate (%) of BRD4 protein): 74.3%"
8.7,"Cn1c(=O)n(C2CCC(=O)NC2=O)c2ccc3c(c21)CNCC3 (centres unmarked) [Compound 8, 3-(1-methyl-2-oxo-1,2,6,7,8,9-hexahydro-3H-imidazo[4,5-h]isoquinolin-3-yl)piperidine-2,6-dione, reference compound]",,
